Data on 1 molecule can be found in the NIST ThermoML archive (doi:10.1021/je0502501).

Numbers after ± are expanded uncertainties.

This series in a line: wn = mass fraction of the nth substance listed. The settings on record: 313 K, 101 kPa, Liquid, Vibrating tube method.

With `CCCCn1cc[n+](C)c1.F[P-](F)(F)(F)(F)F` [1-butyl-3-methylimidazolium hexafluorophosphate] + O, the mass density (w2 = 6.7e-05) was found to be 1358.7 ± 3.6 kg/m3, the mass density (w2 = 0.0015) is 1357.6 ± 3.6 kg/m3, the mass density (w2 = 0.0089) is 1347.3 ± 3.6 kg/m3 and the mass density (w2 = 0.016) is on record as 1335.5 ± 3.5 kg/m3.

Usually mass density stands for the mass of a sample divided by its volume.
